This note sets out measurements from patent publication US20240287108A1, “nSMASE2 INHIBITOR PRODRUGS WITH ENHANCED ORAL AND BRAIN EXPOSURES” (The Johns Hopkins University, priority 2021, published 2024).

The nature of data set [1]: in vitro stability in CES1−/− mouse plasma. Format: in vitro ADME. To be noted: CES1−/− mouse plasma, 10 μM, 37° C. How it is done:
All synthesized prodrugs were next screened for in vitro stability in carboxylesterase 1 knockout (CES1^−/−) mouse plasma, as well as CES1^−/− mouse brain and liver homogenates (Table 2-1). We have previously reported that CES1^−/− mouse model recapitulates human prodrug metabolism. Tenora et al., 2019.
Zimmermann et al., 2018. For the tissue homogenates, washed tissues were diluted 10-fold in 0.1 M potassium phosphate buffer and homogenized using a probe sonicator. To evaluate the stability of the intact prodrug over time, each of the crude homogenates and plasma were aliquoted to 1 mL and then spiked with a final assay concentration of 10 μM of each prodrug followed by incubation in an orbital shaker at 37° C. for 1 h (in triplicate). Sample from each incubation at predetermined time points (0 min, and 1 h) was quenched with three volumes of acetonitrile containing the internal standard (IS; losartan: 0.5 μm). Samples were vortex-mixed for 30 secs and centrifuged at 10,000×g for 10 min at 4° C. Disappearance of intact prodrugs from these samples were performed on a Dionex ultra-high-performance LC system coupled with Q Exactive Focus orbitrap mass spectrometer (Thermo Fisher Scientific Inc., Waltham MA). The separation of analytes was achieved using the Agilent Eclipse Plus column (100×2.1 mm i.d.; maintained at 35° C.) packed with a 1.8 μm C18 stationary phase. The mobile phase consisted of 0.1% formic acid in water and 0.1% formic acid in acetonitrile. Pumps were operated at a flow rate of 0.4 mL/min for 9 min using gradient elution. The mass spectrometer controlled by Xcalibur software 4.0.27.13 (Thermo Scientific) was operated with a heated electrospray ionization (HESI) ion source in positive ionization mode. Quantification of the prodrugs were performed in the full-scan mode (from m/z 50 to 1600) by comparing t=0 samples with t=60 min samples.

Data set [2] has as its system IL-1β-induced release of GFP+ EVs into plasma. As to the kind of experiment: EV release in vivo, IL-1β mouse model of acute brain injury. As to conditions: P18 3 and 10 mg/kg DPTIP equivalent PO 30 min before intrastriatal IL-1β; 4 h. An excerpt:
We have previously reported that nSMase2 regulates the secretion of extracellular vesicles from astrocytes in response to a focal inflammatory brain lesion. Rojas et al., 2018. Striatal injection of IL-1β in mice expressing GFAP-EGFP in astroglia evokes the release of GFP-labelled EVs that rapidly enter into plasma and target multiple organ systems. Dickens et al., 2017. We used this mouse model to evaluate the ability of P18 to inhibit EV release by the inhibition of nSMase2 activity in vivo. […] Interleukin-1β-injected mice, orally pre-dosed with P18 (30 min prior) were euthanized 4-hours post-IL-1β injection. GFP labeled (GFP+) EVs were quantified in plasma and nSMase2 activity was measured in the brain striata.
Striatal injections and EV measurements were performed as previously described by our group. Dickens et al., 2017; Mccluskey et al., 2008. […] Mice subjected to intrastriatal injection of IL-1β were also injected with the NSAID carprofen (rimadyl, 5 mg/kg. i.p.) and closely monitored during recovery; no adverse reactions were observed. […] Quantitation of Plasma EVs: Dynabeads M-450) Epoxy (Invitrogen) were coupled with anti-GFP antibody (Thermo Fisher) at a ratio of 200-μg antibody per 4×10^8 beads. […] The concentration of immunoprecipitated GFP+ EVs was quantified using ZetaView nanoparticle tracking analysis (Particle Metrix) and corresponding ZetaView software (8.05.14.SP7). […]

SMILES strings stand for the structures. “Also recorded” adds a separate entry of the source.

With `CCC1CC(N2CCCCC2)CC(CC)N1C(=O)Oc1c(OC)cc(-c2nc(-c3ccccc3)c(-c3cccs3)[nH]2)cc1OC` (centres unmarked) [Compound P18, 2,6-Dimethoxy-4-(5-phenyl-4-(thiophen-2-yl)-1H-imidazol-2-yl)phenyl 2′,6′-diethyl-[1,4′-bipiperidine]-1′-carboxylate], the “Stability in mouse (% remaining at 1h) Mean + Std Error, Plasma” value in data set [1] was determined as 92 ± 7%. The “IL-1β-induced release of GFP+ EVs into plasma” value in data set [2] is “significantly inhibited IL-1β-induced EV release into plasma; also recorded: inhibited the release of brain derived GFP+ EVs into blood at both 3 and 10 mg/kg; also recorded: significant inhibition”.
